Results from ChEMBL document CHEMBL1140868, “Current perspective of TACE inhibitors: a review” (Bioorg Med Chem, 2009).
pIC50, pKi: −log10 of the molar value.

What was measured:
[1] = biological target: T1, Disintegrin and metalloproteinase domain-containing protein 17 (Homo sapiens, UniProt P78536); assay: Inhibition of TACE
[2] = Selectivity for TACE over MMP1
[3] = test system: Mus musculus; assay: Inhibition of TNFalpha production in mouse at 50 mg/kg, po after 1 hr; assay type: functional
[4] = biological target: Disintegrin and metalloproteinase domain-containing protein 17 (Sus scrofa, UniProt O77636); assay: Inhibition of pig TACE
[5] = test system: Rattus norvegicus; assay: Inhibition of LPS-induced TNFalpha production in po dosed rat plasma; assay type: functional
[6] = Inhibition of TNFalpha production in whole blood; assay type: functional, tissue-based
[7] = Oral bioavailability in rat; assay type: ADME, organism-based; details: in vivo
[8] = Half life in human; assay type: ADME, organism-based; details: in vivo
[9] = test system: Mus musculus; assay: Inhibition of LPS-induced TNFalpha production in po dosed mouse; assay type: functional
[10] = Oral bioavailability in dog; assay type: ADME, organism-based, Canis lupus familiaris; details: in vivo
[11] = Selectivity for TACE over MMP2
[12] = Selectivity for TACE over MMP9
[13] = test system: Mus musculus; assay: Inhibition of TNFalpha production in mouse at 100 mg/kg, po after 1 hr; assay type: functional
[14] = biological target: Collagenase 3 (Homo sapiens, UniProt P45452); assay: Inhibition of MMP13
[15] = test system: THP-1; assay: Inhibition of LPS-induced TNFalpha production in human THP1 cells; assay type: functional, cell-based
[16] = biological target: T2, Interstitial collagenase (Homo sapiens, UniProt P03956); assay: Inhibition of MMP1
T2 sequence (P03956 whole entry): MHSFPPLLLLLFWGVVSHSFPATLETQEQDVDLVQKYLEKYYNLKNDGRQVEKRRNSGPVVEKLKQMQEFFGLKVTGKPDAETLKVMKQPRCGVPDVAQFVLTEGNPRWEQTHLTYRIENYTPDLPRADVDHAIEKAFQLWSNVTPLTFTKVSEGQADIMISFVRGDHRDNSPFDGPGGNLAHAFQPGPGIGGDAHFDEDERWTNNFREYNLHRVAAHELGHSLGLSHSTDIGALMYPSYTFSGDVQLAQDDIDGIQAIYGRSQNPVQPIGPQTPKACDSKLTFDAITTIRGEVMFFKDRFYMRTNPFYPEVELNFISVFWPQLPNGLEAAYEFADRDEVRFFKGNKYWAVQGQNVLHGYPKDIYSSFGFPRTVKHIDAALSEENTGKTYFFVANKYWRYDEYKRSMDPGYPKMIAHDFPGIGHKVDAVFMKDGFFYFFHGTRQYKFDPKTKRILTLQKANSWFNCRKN

[17] = biological target: T1, Disintegrin and metalloproteinase domain-containing protein 17; assay: Inhibition of TACE by cell free assay
[18] = biological target: T1, Disintegrin and metalloproteinase domain-containing protein 17; assay: Inhibition of TACE in human PBMC
[19] = Fraction unbound in human serum; assay type: ADME, cell-free
[20] = biological target: 72 kDa type IV collagenase (Homo sapiens, UniProt P08253); assay: Inhibition of MMP2
[21] = biological target: Matrix metalloproteinase-9 (Homo sapiens, UniProt P14780); assay: Inhibition of MMP9
[22] = test system: Blood; assay: Inhibition of TNFalpha production in human whole blood; assay type: functional, tissue-based
[23] = Half life in rat LPS model; assay type: ADME, organism-based; details: in vivo
[24] = Bioavailability in rat; assay type: ADME, organism-based; details: in vivo

T1 sequence (P78536 whole entry, the tested form may be a part): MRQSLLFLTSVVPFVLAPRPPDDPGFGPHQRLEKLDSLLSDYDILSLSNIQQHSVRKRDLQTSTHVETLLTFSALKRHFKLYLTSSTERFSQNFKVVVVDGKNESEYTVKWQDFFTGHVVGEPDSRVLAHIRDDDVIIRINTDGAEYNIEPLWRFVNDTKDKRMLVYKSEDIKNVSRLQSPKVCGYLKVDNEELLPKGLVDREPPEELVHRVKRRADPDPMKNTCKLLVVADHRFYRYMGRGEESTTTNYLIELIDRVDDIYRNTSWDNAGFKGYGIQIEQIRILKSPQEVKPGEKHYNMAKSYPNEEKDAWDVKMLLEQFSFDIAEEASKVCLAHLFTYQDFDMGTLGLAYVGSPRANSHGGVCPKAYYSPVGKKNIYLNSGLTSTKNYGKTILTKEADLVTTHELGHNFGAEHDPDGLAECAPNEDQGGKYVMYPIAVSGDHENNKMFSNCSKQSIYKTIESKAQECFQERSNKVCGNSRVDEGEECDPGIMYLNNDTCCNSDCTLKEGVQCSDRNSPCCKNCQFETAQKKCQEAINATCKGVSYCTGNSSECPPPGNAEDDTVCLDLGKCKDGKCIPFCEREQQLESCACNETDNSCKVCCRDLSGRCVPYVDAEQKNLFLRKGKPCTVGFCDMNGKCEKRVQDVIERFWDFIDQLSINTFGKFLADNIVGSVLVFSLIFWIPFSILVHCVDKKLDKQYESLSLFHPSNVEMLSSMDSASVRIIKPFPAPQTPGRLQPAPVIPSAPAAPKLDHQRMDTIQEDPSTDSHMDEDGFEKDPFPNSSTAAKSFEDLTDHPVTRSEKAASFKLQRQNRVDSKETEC
Chain of Disintegrin and metalloproteinase domain-containing protein 17 (Sus scrofa, UniProt O77636) (O77636 whole entry, the tested form may be a part): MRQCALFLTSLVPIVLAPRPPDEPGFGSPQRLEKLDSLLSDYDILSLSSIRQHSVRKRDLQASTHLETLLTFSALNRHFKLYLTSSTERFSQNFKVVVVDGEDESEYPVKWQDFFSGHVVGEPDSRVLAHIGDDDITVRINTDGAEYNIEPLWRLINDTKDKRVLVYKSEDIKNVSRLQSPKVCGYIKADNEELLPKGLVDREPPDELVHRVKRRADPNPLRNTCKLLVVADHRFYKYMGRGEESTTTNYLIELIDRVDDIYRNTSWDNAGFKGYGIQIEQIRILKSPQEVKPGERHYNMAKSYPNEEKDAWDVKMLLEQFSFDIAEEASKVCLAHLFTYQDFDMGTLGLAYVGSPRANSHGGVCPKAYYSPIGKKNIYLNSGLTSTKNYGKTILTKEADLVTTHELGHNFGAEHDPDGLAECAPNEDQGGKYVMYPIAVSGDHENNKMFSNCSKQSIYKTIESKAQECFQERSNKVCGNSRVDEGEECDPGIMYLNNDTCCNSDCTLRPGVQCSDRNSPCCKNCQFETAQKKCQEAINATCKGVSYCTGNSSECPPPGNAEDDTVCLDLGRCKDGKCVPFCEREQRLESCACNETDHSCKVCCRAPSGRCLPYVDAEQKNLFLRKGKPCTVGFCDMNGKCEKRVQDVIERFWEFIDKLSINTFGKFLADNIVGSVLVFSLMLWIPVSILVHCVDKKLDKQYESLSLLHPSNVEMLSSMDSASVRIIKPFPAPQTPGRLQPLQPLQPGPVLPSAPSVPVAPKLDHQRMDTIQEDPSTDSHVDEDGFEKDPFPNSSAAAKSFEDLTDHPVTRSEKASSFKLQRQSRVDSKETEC
Chain of Matrix metalloproteinase-9 (P14780 whole entry): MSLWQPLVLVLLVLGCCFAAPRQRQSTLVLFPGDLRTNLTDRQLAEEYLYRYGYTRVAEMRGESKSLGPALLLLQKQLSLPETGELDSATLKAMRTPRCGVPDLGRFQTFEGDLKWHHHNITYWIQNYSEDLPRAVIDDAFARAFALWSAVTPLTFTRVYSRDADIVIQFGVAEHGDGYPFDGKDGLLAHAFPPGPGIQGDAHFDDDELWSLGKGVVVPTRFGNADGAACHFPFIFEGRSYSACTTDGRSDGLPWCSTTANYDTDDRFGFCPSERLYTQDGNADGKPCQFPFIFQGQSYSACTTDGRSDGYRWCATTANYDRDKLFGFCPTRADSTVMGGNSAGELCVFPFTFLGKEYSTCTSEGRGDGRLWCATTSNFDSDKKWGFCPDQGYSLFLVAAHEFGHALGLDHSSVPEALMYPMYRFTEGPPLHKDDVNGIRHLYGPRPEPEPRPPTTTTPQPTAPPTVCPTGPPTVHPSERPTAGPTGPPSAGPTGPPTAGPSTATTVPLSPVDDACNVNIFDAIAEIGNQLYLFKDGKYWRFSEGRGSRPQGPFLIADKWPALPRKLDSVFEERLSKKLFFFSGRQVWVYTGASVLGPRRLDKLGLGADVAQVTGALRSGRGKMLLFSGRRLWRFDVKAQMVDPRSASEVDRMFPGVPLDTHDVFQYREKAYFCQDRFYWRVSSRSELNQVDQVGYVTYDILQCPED
Chain of 72 kDa type IV collagenase (P08253 whole entry): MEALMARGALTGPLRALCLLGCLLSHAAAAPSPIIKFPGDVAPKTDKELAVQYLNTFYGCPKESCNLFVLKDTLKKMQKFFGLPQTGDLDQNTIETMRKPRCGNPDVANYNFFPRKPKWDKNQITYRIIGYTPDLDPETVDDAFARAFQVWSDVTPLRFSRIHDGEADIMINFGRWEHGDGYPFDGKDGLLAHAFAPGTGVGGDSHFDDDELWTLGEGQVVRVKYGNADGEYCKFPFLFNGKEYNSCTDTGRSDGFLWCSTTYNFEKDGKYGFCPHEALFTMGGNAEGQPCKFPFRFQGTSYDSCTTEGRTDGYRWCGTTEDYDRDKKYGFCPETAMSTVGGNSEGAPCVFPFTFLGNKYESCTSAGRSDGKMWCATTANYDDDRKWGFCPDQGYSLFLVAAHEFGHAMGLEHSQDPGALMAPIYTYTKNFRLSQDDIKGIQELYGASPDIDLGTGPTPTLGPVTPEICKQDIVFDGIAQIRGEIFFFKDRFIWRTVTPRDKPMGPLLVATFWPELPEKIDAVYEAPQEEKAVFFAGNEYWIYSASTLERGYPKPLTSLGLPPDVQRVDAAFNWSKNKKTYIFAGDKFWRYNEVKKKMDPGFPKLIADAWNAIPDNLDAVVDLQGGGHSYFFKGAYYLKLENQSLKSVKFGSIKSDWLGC

Compound: O=C(NO)[C@@H]1CC[C@H](O)CN1S(=O)(=O)c1ccc(OCc2ccccc2I)cc1
- pIC50 [1]: 3.96

Compound: CC#CCOc1ccc(S(=O)(=O)N(C)c2c(N3CCN(C)CC3)ccc(Br)c2C(=O)NO)cc1
- pIC50 [1]: 7.60
- Selectivity ratio [2]: 500
- inhibition in vivo at 50 mg/kg [3]: 100%

Compound: COc1cc(COc2ccc3c(c2)NCCN(C(CCCCNS(C)(=O)=O)C(=O)NO)S3(=O)=O)cc(OC)c1 (stereo unspecified)
- pKi [4]: 8.30

Compound: CCC(=O)[C@@H](NC(=O)[C@H](c1ccc(OC)cc1)[C@H](CO)C(=O)NO)C(C)(C)C
- ED50 [5]: 1 mg/kg

Compound: Cc1cc(COc2ccc(C3(C)C(=O)NC(=O)NC3=O)cc2)c2ccccc2n1
- pIC50 [1]: 9.00

Compound: CC1(C)SCCN(S(=O)(=O)c2ccc(OCC#CCO)cc2)[C@H]1C(=O)NO
- pIC50 [1]: 6.36

Compound: CCOP(=O)(N[C@@H](CC(C)C)C(=O)NO)c1ccc(OC)cc1 (stereo partly specified)
- pIC50 [1]: 7.12

Compound: CC(C)C[C@@H](C(=O)NN(CC(C)C)S(C)(=O)=O)[C@H](C/C=C/c1ccccc1)C(=O)NO
- pIC50 [1]: 8.52

Compound: Cc1cc(COc2ccc([C@]3(N)CCN([C@H](CC(C)C)C(=O)NO)C3=O)cc2)c2ccccc2n1
- pIC50 [6]: 7.05
- bioavailability [7]: 16%
- half-life [8]: 3 h
- ED50 [9]: 6 mg/kg
- pIC50 [1]: 9.70
- bioavailability [10]: 54%

Compound: CC1(C)SCCN(S(=O)(=O)c2ccc(Oc3ccncc3)cc2)[C@H]1C(=O)NO [PRINOMASTAT]
- pIC50 [1]: 7.66

Compound: C[C@H](C(=O)NO)N1CC[C@@](C)(c2ccc(OCc3ccccc3)cc2)C1=O
- pIC50 [1]: 8.40

Compound: Cc1cc(COc2ccc(N3C(C(=O)NO)CCCS3(=O)=O)cc2)c2ccccc2n1 (stereo unspecified)
- Selectivity ratio [2]: > 1000
- Selectivity ratio [11]: > 1000
- Selectivity ratio [12]: > 1000

Compound: CC#CCOc1ccc(S(=O)(=O)N(C)c2c(C(=O)NO)cnc3onc(C)c23)cc1
- inhibition in vivo at 100 mg/kg [13]: 95%

Compound: CNC(=O)[C@H](Cc1ccc(NC(=N)N)cc1)NC(=O)[C@H](CC(C)C)[C@H](CCCc1ccccc1)C(=O)NO
- pIC50 [14]: 10.00
- pIC50 [15]: 6.89
- pIC50 [16]: 8.22

Compound: CCC[C@@H]([C@@H](CC(C)C)C(=O)C[C@@H](CCCN/C(N)=N/[N+](=O)[O-])C(=O)Nc1nccs1)N(O)C=O
- pIC50 [17]: 8.37

Compound: CNC(=O)[C@@H](NC(=O)[C@H](c1ccc(OC)cc1)[C@H](CO)C(=O)NO)C(C)(C)C
- pIC50 [18]: 7.25

Compound: Cc1cc(COc2ccc([C@]3(C)CCN([C@H](C)C(=O)NO)C3=O)cc2)c2ccccc2n1
- pIC50 [6]: 6.46
- fraction unbound [19]: 0.036

Compound: Cc1cc(COc2ccc(C(=O)NCCC(=O)NO)cc2)c2ccccc2n1
- pIC50 [4]: 9.00

Compound: Cc1cc(COc2ccc(S(=O)(=O)CC3C(C(=O)NO)CCN3C)cc2)c2ccccc2n1 (stereo unspecified)
- pIC50 [6]: 6.74
- pIC50 [1]: 9.00
- Selectivity ratio [2]: 2000
- Selectivity ratio [11]: 2000
- Selectivity ratio [12]: 2000

Compound: CNC(=O)[C@@H](NC(=O)[C@H](c1ccc(C)cc1)[C@H](CO)C(=O)NO)C(C)(C)C
- pIC50 [18]: 6.85

Compound: Cc1cc(COc2ccc(C(=O)NC3(C)C(=O)NC(=O)NC3=O)cc2)c2ccccc2n1
- pIC50 [1]: 10.59

Compound: CC#CCOc1ccc(S(=O)(=O)N2Cc3ccc(CO)cc3N(C(C)=O)CC2C(=O)NO)cc1 (stereo unspecified)
- Selectivity ratio [2]: > 40

Compound: CC#CCOc1ccc(S(=O)(=O)CC2(C(=O)NO)CCN(S(=O)(=O)C(C)C)CC2)cc1
- Selectivity ratio [11]: 230

Compound: COc1ccc(S(=O)(=O)N(C)c2c(C)cc(Br)cc2C(=O)NO)cc1
- pIC50 [14]: 7.96

Compound: Cc1cc(OCc2ccc(NC(=O)[C@H]3CCCC[C@@H]3C(=O)NO)cc2)c2ccccc2n1
- pIC50 [6]: < 4.30
- pIC50 [1]: 8.10

Compound: C[C@H](C(=O)NO)N1CC[C@@](C)(c2ccc(-c3ccccc3)cc2)C1=O
- pIC50 [1]: 4.89

Compound: CC#CCOc1ccc(S(=O)(=O)N(C)c2c(C(=O)NO)cnc3c(OC)cccc23)cc1
- Selectivity ratio [2]: 50

Compound: C/C=C/C=C/C=C1/C=C(CCC(=O)NO)C(=O)OC1
- pIC50 [20]: 8.22
- pIC50 [21]: 7.64
- pIC50 [1]: 7.55

Compound: Cc1cc(COc2ccc(NC(=O)[C@@H]3[C@@H](C(=O)NO)CCCN3C)cc2)c2ccccc2n1
- pIC50 [6]: 7.70
- pIC50 [1]: 8.21

Compound: C[C@H](C(=O)NO)N1CC[C@@](C)(c2ccc(OCc3cc(C(F)(F)F)cc(C(F)(F)F)c3)cc2)C1=O
- pIC50 [1]: 8.70
- Selectivity ratio [2]: > 1000
- Selectivity ratio [11]: > 1000
- Selectivity ratio [12]: > 1000

Compound: Cc1cc(COc2ccc(N3CC[C@](C)(CC(=O)NO)C3=O)cc2)c2ccccc2n1
- pIC50 [22]: 5.80
- pIC50 [1]: 9.00

Compound: Cc1cc(COc2ccc(N3CCC([C@H](NC(=O)OC(C)(C)C)C(=O)NO)C3=O)cc2)c2ccccc2n1 (stereo partly specified)
- Selectivity ratio [2]: 700
- Selectivity ratio [11]: 300
- Selectivity ratio [12]: 300

Compound: CC[C@H](C)[C@H](NC(=O)[C@H](CC(C)C)[C@H](C(C)C)N(O)C=O)C(=O)Nc1ccccn1
- pIC50 [17]: 7.40
- half-life [23]: > 12 h

Compound: CC#CCOc1ccc([S+]([O-])C(CCCCCC)C(=O)NO)cc1 (stereo unspecified)
- pIC50 [1]: 8.40

Compound: C=CCONC(=O)[C@@H]1[C@@H](C)N(C(C)=O)CCN1S(=O)(=O)c1ccc(OCc2ccc(C)cc2)cc1
- pIC50 [14]: 8.52
- pIC50 [1]: 9.00
- pIC50 [16]: 5.80

Compound: CC(C)Cc1ccc([C@]2(C)CCN([C@H](C)C(=O)NO)C2=O)cc1
- pIC50 [1]: 6.00

Compound: C[C@H](C(=O)NO)N1CC[C@@](C)(c2ccc(Oc3ccccc3)cc2)C1=O
- pIC50 [1]: 6.73

Compound: Cc1cc(COc2ccc(C(=O)N[C@@H]3COCC[C@@H]3C(=O)NO)cc2)c2ccccc2n1
- pIC50 [6]: 6.89
- bioavailability [24]: 58%
- pIC50 [1]: > 9.00
- Selectivity ratio [2]: > 30000
- Selectivity ratio [11]: > 30000
